The values below come from patent US9931329B2, “Phenyl triazole derivative and its use for modulating the GABAA receptor complex” (SANIONA A/S, priority 2012, dated 2018).

Series [1] deals with T1, human GABAA α5β3*γ2S receptor (Homo sapiens, UniProt P18507+P31644).
T1 construct: expressed in transfected cells
In words: In vitro inhibition of 3H-flumazenil binding, HEK cells expressing human GABAA α5β3*γ2S receptor. The protocol: When the cultures reach confluency, the DMEM is removed and the cells are washed (10 ml for T175 flasks; 50 ml for roller bottles) once in Dulbecco's Phosphate Buffered Saline (DPBS). Following addition of DPBS to the cultures (10 ml for T175 flasks; 100 ml for roller bottles) for approximately 5 min cells are easily detached from the surface by shaking or tapping the flask gently. The cell suspension is transferred to Falcon tubes and centrifuged at 23,500×g for 10 min at 2° C. The pellet is washed once in 15 ml Tris-citrate buffer (50 mM, pH 7.1) using an Ultra-Turrax homogenizer and centrifuged at 2° C. for 10 min at 27,000×g. The washed pellet is re-suspended in 15 ml Tris-citrate buffer and frozen at −80° C. until the day of the binding experiment.
On the day of the experiment the cell membrane preparation is thawed and centrifuged at 2° C. for 10 min at 27,000×g.
Non-specific binding is determined using clonazepam (1 μM, final concentration). […]
The amount of radioactivity on the filters is determined by conventional liquid scintillation counting using a […]
where B is the binding in percentage of total specific binding; C is the concentration of test compound; and n is the Hill coefficient. […] The IC50 value is calculated from the concentration response curves by the non-linear regression method using the curve-fitting program GraphPad Prism.

T1 sequence (P31644 32-462): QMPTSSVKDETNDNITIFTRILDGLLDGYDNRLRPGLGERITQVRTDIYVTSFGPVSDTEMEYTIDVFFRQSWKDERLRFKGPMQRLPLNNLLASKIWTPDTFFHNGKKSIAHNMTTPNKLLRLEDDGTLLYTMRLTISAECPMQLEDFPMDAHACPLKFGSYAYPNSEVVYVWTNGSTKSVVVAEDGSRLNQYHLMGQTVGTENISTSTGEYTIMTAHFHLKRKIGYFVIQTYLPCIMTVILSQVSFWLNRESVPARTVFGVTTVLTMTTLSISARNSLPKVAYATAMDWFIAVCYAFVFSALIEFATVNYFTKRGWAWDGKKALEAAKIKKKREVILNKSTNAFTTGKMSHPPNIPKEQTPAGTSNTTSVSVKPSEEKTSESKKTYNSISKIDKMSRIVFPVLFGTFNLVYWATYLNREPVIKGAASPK
T1 sequence (P18507 40-467 isoform P18507-1 limits assumed): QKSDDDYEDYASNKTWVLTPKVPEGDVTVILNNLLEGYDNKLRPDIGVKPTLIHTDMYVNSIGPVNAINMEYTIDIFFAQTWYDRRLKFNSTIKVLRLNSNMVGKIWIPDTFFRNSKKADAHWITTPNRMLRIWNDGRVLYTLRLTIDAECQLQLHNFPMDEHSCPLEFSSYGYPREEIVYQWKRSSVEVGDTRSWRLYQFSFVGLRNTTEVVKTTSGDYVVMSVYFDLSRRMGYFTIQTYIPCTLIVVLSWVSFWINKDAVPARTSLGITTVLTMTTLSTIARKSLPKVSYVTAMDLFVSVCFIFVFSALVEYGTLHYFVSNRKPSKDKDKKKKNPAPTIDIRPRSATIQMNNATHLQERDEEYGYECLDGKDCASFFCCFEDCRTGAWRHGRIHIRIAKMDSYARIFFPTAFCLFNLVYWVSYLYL

`Cn1nnc(-c2ccccc2F)c1COc1ccc(-n2cnc(C#N)c2)cn1` [Compound 7, 1-{6-[5-(2-Fluoro-phenyl)-3-methyl-3H-[1,2,3]triazol-4-ylmethoxy]-pyridin-3-yl}-1H-imidazole-4-carbonitrile]: the melting point (in general, the temperature of the solid-liquid transition) lay in the range of 178 to 181.5 °C. Moreover, the Ki (in general, the dissociation constant of the complex between target and ligand, obtained from inhibition or displacement) in series [1] is 20 nM.
